Results taken from patent US5942518A, “Water-soluble fluoroethylcamptothecin derivative and process for production thereof” (priority 1995, dated 1999).
Where a name gives a salt, the structure may show the parent alone.

Columns and labels:
[1] = cited from earlier work
[2] = test system: mouse colonic cancer colon 26; assay: Antineoplastic effect against mouse colonic cancer colon 26 (Experimental Example 2); assay type: in vivo, CDF-1 female mice; details: for TGI (tumor growth inhibition rate): colon 26, tail vein, 3 times at 4-day intervals, day 17-19; for antineoplastic activity against the growth of advanced colonic cancer 26 tumor: mice, intravenous administration
Description: (§1) To CDF-1 female mice of 9-week age, 1×10^6 cells of mouse colonic cancer colon 26 were implanted respectively under the skin of the axillary fossa. The medicine was administered to the tail vein three times from six days after the administration when the tumor was detected by finger touch at intervals of four days. On the 17th to 19th days from the implantation,the tumors were enucleated and weighed. The antineoplastic effect is represented by the tumor growth inhibition rate (TGI=(1-T/C)×100) derived from the ratio (T/C) of the average tumor weight (T) of the medicine-administered group to the average tumor weight (C) of the control group.

[3] = Toxicity in the colon 26 mouse study; assay type: in vivo, CDF-1 female mice
Description: as §1

[4] = target: acetylcholine esterase; assay: Inhibition of acetylcholine esterase reaction (Experimental Example 3); assay type: biochemical
Description: The absorbance was measured at 412 nm. The reaction rate and the acetylthiocholine iodide concentration was plotted according to Lineweaver-Burk method to obtain Vmax, and Km. Then, the inhibition constant (Ki) was calculated from the inhibitor concentration.

[5] = test system: sarcoma 180; assay: Antineoplastic effect against mouse sarcoma 180 tumor (Experimental Example 1); assay type: in vivo, ICR female mice; details: sarcoma 180, tail vein, 3 times at 4-day intervals, day 14
Description: To ICR female mice of 5-week age, 5×10^6 cells of sarcoma 180 were implanted respectively under the skin of the axillary fossa. The medicine was administered to the tail vein three times from the day next to the administration at intervals of four days. After 14 days from the implantation, the tumors were enucleated and weighed. The antineoplastic effect is represented by the tumor growth inhibition rate (TGI=(1-T/C)×100) derived from the ratio (T/C) of the average tumor weight (T) of the medicine-administered group to the average tumor weight (C) of the control group.

[6] = test system: nucleic acid synthesis; details: background; cited from earlier work

Chain of acetylcholine esterase (P22303 32-614): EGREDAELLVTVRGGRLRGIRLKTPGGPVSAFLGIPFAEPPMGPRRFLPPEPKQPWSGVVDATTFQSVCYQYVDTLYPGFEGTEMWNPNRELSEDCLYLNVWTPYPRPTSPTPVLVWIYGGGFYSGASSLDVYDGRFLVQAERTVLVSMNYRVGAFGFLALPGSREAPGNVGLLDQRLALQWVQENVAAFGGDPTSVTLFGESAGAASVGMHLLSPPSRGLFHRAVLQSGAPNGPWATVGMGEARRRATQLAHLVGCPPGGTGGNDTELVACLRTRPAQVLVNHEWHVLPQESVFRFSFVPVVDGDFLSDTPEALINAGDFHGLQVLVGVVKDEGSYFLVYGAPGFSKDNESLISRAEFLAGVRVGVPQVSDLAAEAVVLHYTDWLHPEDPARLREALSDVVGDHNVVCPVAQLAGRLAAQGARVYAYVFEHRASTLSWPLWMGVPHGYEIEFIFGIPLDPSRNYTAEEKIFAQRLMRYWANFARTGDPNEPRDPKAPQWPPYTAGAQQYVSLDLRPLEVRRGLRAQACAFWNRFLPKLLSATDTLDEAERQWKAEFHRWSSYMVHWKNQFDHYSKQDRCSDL

| SMILES | TGI (tumor growth inhibition rate) ([2]; total dose 30 mg/kg) [%] | antineoplastic activity against the growth of advanced colonic cancer 26 tumor [2] | TGI (tumor growth inhibition rate) ([2]; total dose 60 mg/kg) [%] | TGI (tumor growth inhibition rate) ([2]; total dose 120 mg/kg) [%] | TGI (tumor growth inhibition rate) ([5]; total dose 60 mg/kg) [%] | TGI (tumor growth inhibition rate) ([5]; total dose 120 mg/kg) [%] | further results |
| --- | --- | --- | --- | --- | --- | --- | --- |
| CCC1(OC(=O)CN)C(=O)OCc2c1cc1n(c2=O)Cc2cc3cc4c(cc3nc2-1)OCO4 (stereo not drawn) [10,11-methylenedioxy-20-O-glycylcamptothecin] | – | – | – | – | – | – | toxicity / side effects ([1]; known camptothecin derivatives, background): highly toxic |
| CC[C@@]1(OC(=O)CN)C(=O)OCc2c1cc1n(c2=O)Cc2cc3cc4c(cc3nc2-1)OCO4.Cl [Compound 1, 10,11-Methylenedioxy-20-O-glycylcamptothecin hydrochloride] | 44 | not inhibited | – | – | – | – | TGI (tumor growth inhibition rate) ([2]; total dose 7.5 mg/kg): 21%; TGI (tumor growth inhibition rate) ([2]; total dose 15 mg/kg): 22%; Toxicity ([3]; at a dose of as low as 20 mg/kg): toxic; Toxicity ([3]; colon 26 mice, tail vein, total dose 60 mg/kg): Toxic |
| CCOc1ccc2nc3c(c(CC)c2c1)Cn1c-3cc2c(c1=O)COC(=O)C2(CCF)OC(=O)CN (stereo not drawn) [Example 1, 4-[(aminomethylcarbonyl)oxy]-9-ethoxy-11-ethyl-4-(2-fluoroethyl)-1H-pyrano[3',4':6,7]indolidino[1,2-b]quinoline-3,14(4H,12H)-dione hydrochloride] | 28 | – | 59 | 81 | 83 | 91 | TGI (tumor growth inhibition rate) ([2]; total dose 180 mg/kg): 82%; Ki [4]: 20 to 40 µM |
| CCc1c2c(nc3ccc(OC(=O)N4CCC(N5CCCCC5)CC4)cc13)-c1cc3c(c(=O)n1C2)COC(=O)[C@]3(O)CC [Irinotecan hydrochloride, irinotecan hydrochloride] | 8 | not inhibited | 28 | 34 | 75 | 74 | TGI (tumor growth inhibition rate) ([5]; total dose 30 mg/kg): 44%; Toxicity ([3]; colon 26 mice, tail vein, total dose 120 mg/kg): Toxic |
| CC[C@@]1(O)C(=O)OCc2c1cc1n(c2=O)Cc2cc3ccccc3nc2-1 [camptothecin, Camptothecin] | – | – | – | – | – | – | antineoplastic activity by inhibiting nucleic acid synthesis [6]: exhibit antineoplastic activity by inhibiting nucleic acid synthesis; clinical toxicity ([1]; clinical tests in the United States): discontinued because of its toxicity |
